Experimental data: patent US8481724B2, “Synthesis of 2,4-pyrimidinediamines” (Rigel Pharmaceuticals, Inc., priority 2009, dated 2013)

Columns and labels:
[1] = water solubility in aqueous buffer under physiological conditions; assay type: physicochemical; conditions: prodrug versus parent compound of formula IV, same conditions
[2] = cited from earlier work

SMILES	solubility relative to compound of formula IV (times greater) [1]	solubility ([2]; aqueous buffer under physiological conditions (same conditions as formula IV))	water solubility ([2]; aqueous buffer under physiological conditions)
COc1cc(Nc2ncc(F)c(Nc3ccc4c(n3)N(COP(=O)(O)O)C(=O)C(C)(C)O4)n2)cc(OC)c1OC [compound of formula II]	approximately 2000 times	greater than 5 mg/mL	
COc1cc(Nc2ncc(F)c(Nc3ccc4c(n3)NC(=O)C(C)(C)O4)n2)cc(OC)c1OC [compound of formula IV]			1 to 2 µg/mL
